The test concerns the target Gamma-secretase. The experiment in a line: Inhibition of gamma-secretase (unknown origin) assessed as reduction in amyloid beta (1 to 42) production after 60 mins by cell based AlphaLisa assay. The arrangement: species or system Homo sapiens. For orientation: Bead proximity is the source of the signal in Alpha formats.
By EC50 is commonly meant the concentration giving half of the maximal effect. `CNc1nc(N[C@@H]2[C@@H]3CC[C@H]2CN(c2cc(C)ncn2)C3)nc2c1C(C)(C)CN2C1CC(F)(F)C1`: the EC50 amounted to 36 nM. For `CNc1nc(N[C@@H]2[C@@H]3CC[C@H]2CN(c2cc(C)ncn2)C3)nc2c1C(C)(C)CN2c1ccc(F)cc1` the value was 14 nM.

With `CNc1nc(N[C@@H]2[C@@H]3CC[C@H]2CN(c2cc(C)ncn2)C3)nc2c1C(C)(C)CN2C12CC(C(F)(F)F)(C1)C2`, the EC50 worked out at 111 nM.

Regarding `CNc1nc(N[C@@H]2[C@@H]3CC[C@H]2CN(c2nnc(C)o2)C3)nc2c1C(C)(C)CN2c1ccc(F)cc1`, the EC50 is 34 nM. Consider `CNc1nc(N[C@@H]2[C@@H]3CC[C@H]2CN(c2ccnnc2)C3)nc2c1C(C)(C)CN2c1ccc(F)cc1`, for which the EC50 stood at 19 nM. For `CNc1nc(N[C@@H]2[C@@H]3CC[C@H]2CN(c2cc(C)ncn2)C3)nc2c1C(C)(C)CCN2c1ccc(F)cc1` the value was 35 nM.

The record behind these values is ChEMBL document CHEMBL4251689, “Azabicyclic Fused Pyrimidine Derivatives Useful for the Treatment of Alzheimer's Disease” (ACS Med Chem Lett, 2018).
